One molecule from publication PMC6226472, “Cardol triene inhibits dengue infectivity by targeting kl loops and preventing envelope fusion” (Scientific Reports, 2018) can be followed below.

For series [1], the system named is DENV2. Description: Attachment inhibition study. In kind it is cell-based, Dengue virus. The procedure: Since dengue envelope protein was the key factor to receptor-binding, endocytosis, and fusion, we asked the question whether the compound would mainly neutralize the virion, inhibit the receptor binding, or inhibit endosomal fusion. Cardol triene at 10 µM was then co-incubated with DENV2 before, during, and after infection to Vero cells (Fig. 6A). […] Therefore, the major target was most likely at a pH-dependent endosomal fusion. […] However, the major post-infection inhibition required further investigations.
Vero (5 × 10^4) cells were seeded into 24-well plates as previously described. DENV2 (M.O.I. of 1) was diluted in ice-cold MEM with 1% fetal bovine serum[42] and was allowed to adsorb on the cells for 1 h with continuous rocking. Cardol triene (10 µM) was prepared in DMSO and was mixed with DENV2 (M.O.I. of 1) before adsorption for 1 h (pre-attachment). Cardol triene (10 µM) was also mixed with DENV2 (M.O.I. of 1) and immediately applied to the cells (co-attachment). Last, cardol triene was added to the cells after 1 h DENV2 adsorption (post-attachment). The experiments were incubated for 2 days at 37 °C. Intracellular viral RNA was determined from cell lysate using RT-qPCR and infectious virion was determined using plaque titration of the supernatant. DMSO was added to the experiment as a no-inhibition control. Means and standard error of the means (SEM) of three independent experiments were noted.

The next series concerns DENV4 (c0036). Description: Efficacy (EC50) in infected Vero cells. The format is cell-based. Particulars: Dengue virus.
For series [2], the system named is DENV2. The experiment in a line: Time of drug addition study (TOA). In kind it is cell-based, Dengue virus. The conditions noted are these: 10 and 20 µM, added 0-48 h after infection, 72 h incubation. How it is done: Time of drug addition assay is a standard method to primarily identify the possible target of a newly characterized compound[20]. Based on the previous efficacy results, cardol triene was chosen as a representative of all CNSL-derived phenolic lipids. Cardol triene was prepared in DMSO and added to the final concentrations of 10 µM and 20 µM to DENV2 infected Vero cells (M.O.I. of 0.1). The compound was added to the cells at different time-points. DMSO alone was added to the infected cells as a mock treatment. After 72 h incubation, cell lysates and supernatants were collected for analysis of intracellular RNAs and infectious virions by RT-qPCR and plaque titration, respectively.
Vero (5 × 10^4) cells were seeded into each well of 24-well plates. cells were infected with DENV2 (M.O.I. of 0.1) after an overnight incubation[44],[45]. Cardol triene (C15:3) at 10 and 20 µM were added to the cells during (0 h) and after infections at early time-points as follows; 1, 2, 4, 6, 8, 10, 12, 24, 36, and 48 h. Moreover, late time-points after were also accessed at 12, 14, 16, 18, 20, 22, 24, 36, 48, 60, and 72 h after infections. DMSO alone was added to the infected cells at respective time-points as a mock treatment referring to 100% infectivities. […] Data were calculated, assembled, and reported as percent intracellular RNAs and infectious virions under the drug treatment at designated time-points.

The nature of series [3]: Cytotoxic concentration (CC50). The format is cell-based. The conditions noted are these: human. The procedure:
Next, the compound mixture were further purified and synthesized into saturated (C15:0), monoene (C15:1), diene (C15:2), and triene (C15:3) as described in materials and methods. Toxicities were analyzed and results were calculated to percent viability and CC50 were analyzed using non-linear regression curve (Table 1). […] Cardanol triene was insoluble in DMSO, therefore the compound was excluded from this study. It could be inferred that the polyunsaturated hydrocarbon may involve in stabilizing the cell membrane. […] Moreover, we further explored the CC50 of cardol triene in other cell lines to verify its protective effect. Three human-derived cell lines (THP-1, HEK-293, and HepG2) were used to co-incubate with cardol triene and cardol mixture (73% diene and 27% triene).
Cytotoxic concentrations (CC50) were also studied using Vero cells. Briefly, the 10^4 cells were seeded into each well of 96-well plates. After an overnight incubation, phenolic lipids were serially diluted in DMSO to the final concentrations as follows; 25, 50, 100, 200, 300, 400, and 500 µM. Each concentration was performed in quadruplicates. DMSO at 1% was used as a mock treatment referring to 100% cell viability. Cells were incubated for 48 h before cell viability was accessed using CellTiler 96® Aqueous One Solution Cell Proliferation Assay kit (Promega, Wisconsin, USA). Non-linear regression analysis was used to determine cytotoxic concentrations (CC50) of each experiment. Results were derived from three independent experiments and reported as means and standard error of the means (SEM).

Another series has as its system DENV2 NGC. Description: Efficacy study (EC50) in DENV2 infected Vero cells, plaque titration. The format is cell-based, Dengue virus. The procedure: Next, we studied the efficacies (EC50) of the phenolic lipid homologues against DENV2 infectivity in Vero cells. Briefly, compounds at 10 different concentrations were added to DENV2-infected Vero cells (M.O.I. of 0.1) during and post infection and the viral inhibition was determined by plaque titration. […] Noted that anacardic acids were major components of CNSL extracts and all homologues were purified directly from CNSL itself.
Next, each homologue was analyzed for effective concentration (EC50). Vero (5 × 10^4) cells were seeded, and infected with DENV2 (M.O.I. of 0.1) as previously described. Phenolic lipid mixtures and homologues were serially diluted in DMSO to the final concentrations as follows; 0, 0.5, 1, 1.5, 2, 2.5, 5, 7.5, 10, 25, and 50 µM. DMSO at the concentration of 1% was used as a mock treatment referring to 100% infection. Infected cells were treated with the designated compounds during and post infection. Supernatants were collected at 3 days after infection for analysis of virion production by plaque titration. Non-linear regression analysis was used to determine the effective concentrations. […] The therapeutic index (TI) was a ration of CC50/EC50 of the compound.

A further series relates to DENV3 (16562). The experiment in a line: Efficacy (EC50) in infected Vero cells. The format is cell-based. The conditions noted are these: Dengue virus.
In another series the test system is DENV1 (16007). Description: Efficacy (EC50) in infected Vero cells. In kind it is cell-based. Particulars: Dengue virus.

As usually defined, the inhibition is the share of the control response that was lost under treatment. One may read the EC50 as the midpoint of the concentration-response curve. As a reminder, the CC50 is the concentration at which the toxic effect on the cells reaches its halfway point. Consider `C=CC/C=C/C/C=C/CCCCCCCc1cc(O)cc(O)c1` [Cardol triene, 5-[8(Z), 11(Z), 14-pentadecatrienyl]resorcinol], for which the “inhibition of intracellular RNA” value in the series with DENV2 [1] (10 µM, post-infection, RT-qPCR) came to 87.00 ± 6.43%. The “inhibition of infectious virions” value in the series on DENV2 [1] (10 µM, pre-incubation and co-infection) is “moderate inhibition”. Also, in the series on DENV2 [1] (Dengue virus, DENV2, post-infection, plaque titration, read-out: inhibition of infectious virion), the inhibition at 10 µM turned out to be 91.7 ± 4.53%. In addition, the EC50 with DENV4 (c0036) was determined as 8.21 ± 0.34 µM; with DENV2 NGC (Dengue virus, 72 h, DENV2 NGC (M.O.I. of 0.1) infected Vero cells, plaque titration, 3 days, read-out: EC50), 7.13 ± 0.72 µM; in the series with DENV3 (16562), 8.98 ± 1.77 µM; in the series with DENV1 (16007), 5.35 ± 1.16 µM. Moreover, the “intracellular RNAs and infectious virions by time of drug addition” value in the series on DENV2 [2] was “decreased immediately at 1 h and persisted until 48 h after infections”. For the same molecule, the CC50 came out at 148 ± 3.78 µM in series [3] (THP-1 cells), 92.8 ± 3.93 µM in series [3] (HEK-293 cells) and 140 ± 8.44 µM in series [3] (HepG2 cells). Also, the “TI (therapeutic index, CC50/EC50)” value with DENV2 NGC (Vero CC50 / DENV2 EC50) was 29.07.
